Measured values reported in PubChem BioAssay (NCI).
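Grown in 96-well plates, cells were treated for 48 hours with each compound at five concentrations. Insufficient inhibition: endpoint recorded as highest concentration tested. The concentration for 50% growth inhibition is given as GI50. TGI: concentration producing complete growth inhibition.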

Assays:
Assay in all cases: growth of human tumour cells (NCI), 48 h
OVCAR-3 ovarian = tested on: OVCAR-3 ovarian
COLO 205 colon = tested on: COLO 205 colon
DMS 114 small cell lung = tested on: DMS 114 small cell lung
DLD-1 colon = tested on: DLD-1 colon
OVCAR-5 ovarian = tested on: OVCAR-5 ovarian
NCI-H23 lung = tested on: NCI-H23 lung
HCT-116 colon = tested on: HCT-116 colon
MALME-3M melanoma = tested on: MALME-3M melanoma
MDA-MB-231 breast = tested on: MDA-MB-231 breast
MDA-MB-435 = tested on: MDA-MB-435

Row | Structure (SMILES) | TGI (OVCAR-3 ovarian) [µM] | TGI (COLO 205 colon) [µM] | TGI (DMS 114 small cell lung) [µM] | TGI (DLD-1 colon) [µM] | TGI (OVCAR-5 ovarian) [µM] | TGI (NCI-H23 lung) [µM] | TGI (HCT-116 colon) [µM] | TGI (MALME-3M melanoma) [µM] | GI50 (MDA-MB-231 breast) [µM] | TGI (MDA-MB-231 breast) [µM] | GI50 (OVCAR-3 ovarian) [µM] | GI50 (COLO 205 colon) [µM] | GI50 (OVCAR-5 ovarian) [µM] | GI50 (NCI-H23 lung) [µM] | GI50 (HCT-116 colon) [µM] | GI50 (MDA-MB-435) [µM] | TGI (MDA-MB-435) [µM] | GI50 (MALME-3M melanoma) [µM]
1 | CC1=C(C(=O)Nc2ccccc2C)C(c2ccc(C3C(C(=O)Nc4ccccc4C)=CNC=C3C(=O)Nc3ccccc3C)cc2)C(C(=O)Nc2ccccc2C)=C(C)N1 | 39.5 | 50.1 | > 60.5 | 37.4 | 44.4 | 36.5 | > 49.7 | 38.9 | – | – | – | – | – | – | – | – | – | –
2 | Cc1cc2c(cc1C)[n+](=O)c(C(=O)/C=C/c1ccccc1Cl)c(C)n2[O-] | 88.8 | 36.9 | 53.4 | 42.1 | > 100 | 46.7 | – | 94.5 | – | – | – | – | – | – | – | – | – | –
3 | CCC(/C(=N\Nc1c(Cl)cc(Cl)cc1Cl)c1ccccc1)n1ccnc1C (stereo not drawn) | 18.8 | 24.1 | 22.3 | 17.2 | 21.2 | 25.3 | 20.8 | 24.8 | – | – | – | – | – | – | – | – | – | –
4 | O=C(c1ccc2c3c(ccc(C(=O)C(F)(F)F)c13)CC2)C(F)(F)F | > 100 | 44.1 | > 100 | > 100 | > 100 | > 100 | > 100 | > 100 | – | – | – | – | – | – | – | – | – | –
5 | Oc1cc2c(cc1O)-c1[nH]ncc1CC2 | – | 66.5 | 75.2 | > 100 | > 100 | > 100 | > 100 | > 100 | – | – | – | – | – | – | – | – | – | –
6 | O=c1[nH]c(/C=C(\O)c2ccncc2)nc2ccccc12 | > 100 | > 100 | > 100 | > 100 | > 100 | > 100 | > 100 | > 100 | – | – | – | – | – | – | – | – | – | –
7 | CN(C)/C(N)=N/C(N)=S | > 100 | > 100 | > 100 | > 100 | > 100 | > 100 | > 100 | > 100 | – | – | – | – | – | – | – | – | – | –
8 | O=C1C(N2C(=O)c3ccccc3C2=O)CN1C(COCc1ccccc1)c1ccc(OCc2ccccc2)cc1 (stereo not drawn) | > 100 | > 100 | > 100 | > 100 | > 100 | > 100 | > 100 | > 100 | – | – | – | – | – | – | – | – | – | –
9 | COc1ccc(/C=C/C(=O)c2ccc(Nc3ccnc4cc(Cl)ccc34)cc2)cc1 | > 100 | > 100 | – | – | > 100 | > 100 | > 100 | > 100 | 31.1 | > 100 | > 100 | 70.2 | > 100 | > 100 | 0.412 | 65.6 | > 100 | > 100
10 | COc1ccc(-c2coc3cc(OC)cc(O)c3c2=O)cc1 | > 100 | > 100 | – | – | > 100 | > 100 | > 100 | > 100 | – | > 100 | – | – | – | – | – | – | > 100 | –
11 | CC1=CC2C(C(C)C)CC1C1C(=O)OC(=O)C21 (stereo not drawn) | 58.8 | > 100 | – | – | > 100 | > 100 | > 100 | > 100 | – | > 100 | – | – | – | – | – | – | > 100 | –
12 | CCc1ccc(Nc2cc(C)nc3nc(C)nn23)cc1 | > 100 | > 100 | – | – | > 100 | > 100 | > 100 | > 100 | 31.4 | > 100 | 37.8 | 66.9 | > 100 | > 100 | 80.1 | 53.8 | > 100 | 69.5
13 | Oc1cc2ccccc2cc1-c1n[nH]c(=S)n1-c1ccc(Cl)cc1 | > 100 | > 100 | – | – | 95.6 | 60.3 | > 100 | > 100 | 8.88 | 38.3 | 20.3 | 41.7 | 27.6 | 20 | 19.3 | 4.66 | > 100 | 8.85
14 | C[C@]12CC[C@H]3[C@@H](C[C@@H]4N=C(c5ccc(O)cc5)S[C@@]45C[C@H](O)CC[C@]35C)[C@@H]1CC[C@@H]2O | 83.7 | > 100 | – | – | > 100 | > 100 | 27.4 | > 100 | 6.98 | 32.8 | 8.67 | 9.14 | 13.3 | 14 | 2.37 | 16.4 | > 100 | 3.76
15 | BrC12c3ccccc3Sc3ccccc3C1(Br)c1ccccc12 (stereo not drawn) | – | 76.3 | 64.8 | > 100 | 86.2 | – | 52.1 | > 100 | – | – | – | – | – | – | – | – | – | –
16 | O=C(Nc1ccc(Br)cc1F)c1cc(Br)ccc1O | 8.62 | 9.11 | – | – | 33.3 | 3.62 | 4.28 | 1.82 | 1.09 | 4.9 | 0.535 | 2.95 | 2.97 | 0.396 | 0.732 | 0.846 | 5.63 | 0.32
17 | O=C(/C=C/c1cccnc1)c1ccccc1O | 55.2 | 30.1 | – | – | 46.7 | 36 | 34.9 | 62.9 | 17.7 | 46.7 | 20.5 | 14.6 | 19 | 16.9 | 16.8 | 16.4 | 37 | 22.2
18 | CC(Oc1ccc2cc(C(=O)c3ccccc3)c(=O)oc2c1)C(=O)O (stereo not drawn) | > 100 | > 100 | > 100 | – | – | > 100 | > 100 | > 100 | – | – | – | – | – | – | – | – | – | –
19 | COc1ccc(CC2C3=C(CCCC3)CCN2C)cc1 (stereo not drawn) | > 100 | > 100 | – | – | > 100 | > 100 | > 100 | > 100 | – | > 100 | – | – | – | – | – | – | > 100 | –
20 | O=C1c2ccccc2C(=O)c2c1ccc1c2OCO1 | > 100 | > 100 | – | – | > 100 | > 100 | > 100 | > 100 | – | > 100 | – | – | – | – | – | – | > 100 | –
21 | Cc1ccc(S(=O)(=O)n2cc(-c3nnnn3-c3ccc(Cl)cc3)c(=O)c3ccccc32)cc1 | > 100 | > 100 | – | – | > 100 | > 100 | > 100 | > 100 | > 100 | > 100 | > 100 | 93 | > 100 | > 100 | 45.9 | > 100 | > 100 | > 100
